Measured values as given in US7718671B2, “Substituted arylthiourea derivatives useful as inhibitors of viral replication” (Achillion Pharmaceuticals, Inc., priority 2003, dated 2010).

System: Hepatitis C replicon
Experiment: HCV replicon assay (NPT level by captured ELISA in replicon-containing cells)
Format: cell-based
Details: Hepatitis C virus, 72 h; Huh-7 HCV replicon-containing cells, three days incubation
Method: The compounds claimed herein were tested for the ability to inhibit viral replication of the Hepatitis C replicon in cultured cells in which the HCV replicon construct has been incorporated. The HCV replicon system was described by Bartenschlager, et. al (Science, 285, pp. 110-113 (1999)). The replicon system is predictive of in vivo anti-HCV activity; compounds that are active in humans uniformly evidence activity in the replicon assay.
HCV replicon-containing cells are treated with different concentrations of interferon alpha, a known inhibitor of HCV replication, as a positive control and with different concentrations of the test compound. The replicon assay system includes Neomycin Phosphotransferase (NPT) as a component of the replicon itself in order to detect the transcription of replicon gene products in the host cell. Cells in which the HCV is actively replicating have high levels of NPT; the level of NPT is proportional to HCV replication. […] The NPT level of each sample is measured using a captured ELISA.
A protocol for testing compounds for the ability to inhibit viral replication of the Hepatitis C replicon cultured cells in which the replicon construct has been incorporated, follows.
9A. HCV Replicon and Replicon Expression
The HCV genome consists of a single ORF that encodes a 3000 amino acid polyprotein. The ORF is flanked on the 5′ side by an untranslated region that serves as an internal ribosome entry site (IRES) and at the 3′ side by a highly conserved sequence necessary for viral replication (3′-NTR). The structural proteins, necessary for viral infection, are located near the 5′ end of the ORF. The non-structural proteins, designated NS2 to NS5B comprise the remainder of the ORF.
The HCV replicon contains, 5′-3′, the HCV-IRES, the neomycin phosphotransferase (neo) gene, the IRES of encephalomyocarditis virus, which directs translation of HCV sequences NS3 to NS5B, and the 3′-NTR. The sequence of the HCV replicon has been deposited in GenBank (Accession no. AJ242652).
The replicon is transfected into Huh-7 cells using standard methods such as electroporation.
The equipment and materials include, but are not limited to, Huh-7 HCV replicon-containing cells, maintenance media (DMEM (Dulbecco's modified Eagle media) supplemented with 10% FBS, L-glutamine, non-essential amino acids, penicillin (100 units/ml), streptomycin (100 micrograms/ml), and 500 micrograms/ml of Geneticin G418), screening media (DMEM supplemented with 10% FBS, L-glutamine, and non-essential amino acid, penicillin (100 units/ml) and streptomycin (100 micrograms/ml)), 96 well tissue culture plates (flat bottom), 96 well plates (U bottom for drug dilution), Interferon alpha for positive control, fixation reagent (such as methanol: acetone), primary antibody (rabbit anti-NPTII), secondary antibody: Eu—N1l, and enhancement solution.
HCV replicon-containing cells support high levels of viral RNA replicon replication when their density is suitable. Over confluency will cause a decrease of viral RNA replication. Therefore, cells must be kept growing in log phase in the presence of 500 micrograms/ml of G418. Generally, cells should be passed twice a week at 1: 4-6 dilution. Cell maintenance is conducted as follows:
HCV replicon-containing cells are examined under a microscope to ensure that cells growing well. Cells are rinsed once with PBS and 2 ml trypsin is added. The cell/trypsin mixture is incubated at 37° C. in a CO2 incubator for 3-5 minutes. After incubation 10 ml of complete media is added to stop the trypsinization reaction. Cells are blown gently, put into a 15 ml tube, and spun at 1200 rpm for 4 minutes. The trypsin/medium solution is removed. Medium (5 ml) is added and the cells are mixed carefully. The cells are counted.
The cells are then seeded onto 96-well plates at a density of 6000-7500 cells/100 ul/well (6-7.5×10^5 cells/10 ml/plate). The plates are then incubated at 37° C. in a 5% CO2 incubator. […]

## NC(=S)Nc1cccc(Oc2ccccc2)c1 [Compound 3, 1-(3-Phenoxy-phenyl)-thiourea]
  EC50: < 1000 nM

## NC(=S)NCc1cccc(-c2ccccc2)c1 [Compound 56, 1-(3-phenylbenzyl)thiourea]
  EC50: < 1000 nM

## NC(=S)Nc1cccc(OC2Cc3ccccc3C2)c1 [Compound 13, 1-(3-(indan-2-yloxy)phenyl)thiourea]
  EC50: < 1000 nM

## CCCCCOc1ccc(NC(N)=S)cc1 [Compound 6, 1-(4-Pentyloxy-phenyl)-thiourea]
  EC50: < 1000 nM

## NC(=S)Nc1ccc(N2CCc3ccccc3C2)cc1 [Compound 25, 1-(4-(3,4-dihydro-isoquinolin-2(1H)-yl)phenyl)thiourea]
  EC50: < 1000 nM

## CCCCCCC12CCC(c3ccc(NC(N)=S)cc3)(CC1)CC2 [Compound 30, 1-(4-(4-hexylbicyclo[2.2.2]octan-1-yl)phenyl)thiourea]
  EC50: < 1000 nM

## CCCCC#Cc1ccc(NC(N)=S)cc1 [Compound 33, 1-(4-(hex-1-ynyl)phenyl)thiourea]
  EC50: < 1000 nM

## NC(=S)NCc1ccc(Oc2ccccc2)cc1 [Compound 55, 1-(4-phenoxybenzyl)thiourea]
  EC50: < 1000 nM

## COc1cccc(Cc2cccc(NC(N)=S)c2)c1 [Compound 35, 1-(3-(3-methoxybenzyl)phenyl) thiourea]
  EC50: < 1000 nM

## NC(=S)Nc1ccc(N2CCCCC2)c(C(F)(F)F)c1 [Compound 32, 1-(3-(trifluoromethyl)-4-(piperidin-1-yl)phenyl)thiourea]
  EC50: < 1000 nM

## NC(=S)Nc1cccc(OCc2cccc(C(F)(F)F)c2)c1 [Compound 53, 1-(3-(3-(trifluoromethyl)benzyloxy)phenyl)thiourea]
  EC50: < 1000 nM

## CCCCc1ccc(CNC(N)=S)cc1 [Compound 59, 1-(4-butylbenzyl)thiourea]
  EC50: < 1000 nM

## C[C@H](Oc1cccc(NC(N)=S)c1)c1ccccc1 [Compound 16, 1-(3-((S)-1-phenylethoxy)phenyl)thiourea]
  EC50: < 1000 nM

## CCCCCC[C@H]1CC[C@H](c2ccc(NC(N)=S)cc2)CC1 [Compound 29, 1-(4-((1s,4r)-4-hexylcyclohexyl)phenyl)thiourea]
  EC50: < 1000 nM

## NC(=S)NCc1ccc(-c2ccccc2)cc1 [Compound 57, 1-(4-phenylbenzyl)thiourea]
  EC50: < 1000 nM

## NC(=S)Nc1ccc2c(c1)OC(c1ccccc1)O2 (stereo not drawn) [Compound 19, 1-(2-phenylbenzo[d]-[1,3]dioxol-6-yl)thiourea]
  EC50: < 1000 nM

## NC(=S)Nc1cccc(NCC2CCCCC2)c1 [Compound 52, 1-(3-(cyclohexylmethylamino)phenyl)thiourea]
  EC50: < 1000 nM

## C[C@@H](Oc1cccc(NC(N)=S)c1)c1ccccc1 [Compound 20, 1-(3-((R)-1-phenylethoxy)phenyl)thiourea]
  EC50: < 1000 nM

## CCCCCCCOc1ccc(NC(N)=S)cc1C(F)(F)F [Compound 39, 1-(4-(heptyloxy)-3-(trifluoromethyl)phenyl)thiourea]
  EC50: < 1000 nM

## NC(=S)Nc1ccc(-c2ccccc2)cc1 [Compound 23, 1-(4-(phenyl)phenyl)thiourea]
  EC50: < 1000 nM

## NC(=S)Nc1ccc(N2CCc3ccccc3C2)c(F)c1 [Compound 24, 1-(3-fluoro-4-(3,4-dihydro-isoquinolin-2(1H)-yl)phenyl)thiourea]
  EC50: < 1000 nM

## CCCCCc1ccc(NC(N)=S)cc1 [Compound 7, 1-(4-Pentyl-phenyl)-thiourea]
  EC50: < 1000 nM

## NC(=S)Nc1cccc(OCc2ccc(-c3ccccc3)cc2)c1 [Compound 15, 1-(3-(4-phenylbenzyloxy)phenyl)thiourea]
  EC50: < 1000 nM

## CCC[C@H]1CC[C@H](c2ccc(NC(N)=S)cc2)CC1 [Compound 31, 1-(4-((1s,4r)-4-propylcyclohexyl)phenyl)thiourea]
  EC50: < 1000 nM

## NC(=S)Nc1ccc(N2CCC(c3ccccc3)CC2)c(F)c1 [Compound 54, 1-(3-fluoro-4-(4-phenylpiperidin-1-yl)phenyl)thiourea]
  EC50: < 1000 nM

## Cc1cc(NC(N)=S)ccc1N1CCCCC1 [Compound 51, 1-(3-(methyl)-4-(piperidin-1-yl)phenyl)thiourea]
  EC50: < 1000 nM

## NC(=S)Nc1cccc(OCCc2ccccc2)c1 [Compound 21, 1-(3-(phenethyloxy)phenyl)thiourea]
  EC50: < 1000 nM

## CCCCCOc1ccc(NC(N)=S)cc1F [Compound 12, 1-(3-Fluoro-(4-Pentyloxy)-phenyl)-thiourea]
  EC50: < 1000 nM

## NC(=S)Nc1cccc(OCc2ccc(F)c(F)c2)c1 [Compound 14, 1-(3-(3,4-difluorobenzyloxy)phenyl)thiourea]
  EC50: < 1000 nM

## NC(=S)Nc1cccc(-c2ccccc2)c1 [Compound 22, 1-(3-(phenyl)phenyl)thiourea]
  EC50: < 1000 nM

## NC(=S)Nc1ccc(OCc2ccccc2)cc1 [Compound 28, 1-(4-(benzyloxy)phenyl)thiourea]
  EC50: < 1000 nM

## NC(=S)Nc1cccc(Cc2ccccc2)c1 [Compound 5, 1-(3-Benzyl-phenyl)-thiourea]
  EC50: < 1000 nM

## NC(=S)Nc1ccc(N2CCC3CCCCC3C2)cc1 (stereo not drawn) [Compound 26, 1-(4-(octahydroisoquinolin-2(1H)-yl)phenyl)thiourea]
  EC50: < 1000 nM
